# Source: article PMC10004634 (PLOS ONE, 2023)
# Where two headings read alike, the source gives them in different places.
# Tests used:
# Experiment in all cases: biochemical
# Design in all cases: KINOMEscan scanMAX competition binding, DNA-tagged kinases, qPCR read-out, percent control at 300 nM
# [1] = target: T1, CDKL2 (Homo sapiens, UniProt Q92772)
# T1 sequence (Q92772 1-493): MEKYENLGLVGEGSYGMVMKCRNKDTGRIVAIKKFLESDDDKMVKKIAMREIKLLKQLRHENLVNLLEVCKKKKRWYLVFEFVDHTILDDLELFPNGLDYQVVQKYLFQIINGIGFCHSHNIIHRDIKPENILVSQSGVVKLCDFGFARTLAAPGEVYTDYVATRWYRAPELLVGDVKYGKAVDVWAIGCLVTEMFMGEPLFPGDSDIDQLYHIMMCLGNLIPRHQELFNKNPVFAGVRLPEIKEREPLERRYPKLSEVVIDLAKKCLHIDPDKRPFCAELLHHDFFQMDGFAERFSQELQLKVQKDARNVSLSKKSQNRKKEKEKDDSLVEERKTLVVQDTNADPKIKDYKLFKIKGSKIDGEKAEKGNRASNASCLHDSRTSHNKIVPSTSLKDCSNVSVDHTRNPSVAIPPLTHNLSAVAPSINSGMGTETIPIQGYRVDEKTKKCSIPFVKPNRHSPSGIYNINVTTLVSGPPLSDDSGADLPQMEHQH
# [2] = target: T2, IKK-epsilon (Homo sapiens, UniProt Q14164)
# T2 construct: gene IKBKE
# T2 sequence (Q14164 1-716): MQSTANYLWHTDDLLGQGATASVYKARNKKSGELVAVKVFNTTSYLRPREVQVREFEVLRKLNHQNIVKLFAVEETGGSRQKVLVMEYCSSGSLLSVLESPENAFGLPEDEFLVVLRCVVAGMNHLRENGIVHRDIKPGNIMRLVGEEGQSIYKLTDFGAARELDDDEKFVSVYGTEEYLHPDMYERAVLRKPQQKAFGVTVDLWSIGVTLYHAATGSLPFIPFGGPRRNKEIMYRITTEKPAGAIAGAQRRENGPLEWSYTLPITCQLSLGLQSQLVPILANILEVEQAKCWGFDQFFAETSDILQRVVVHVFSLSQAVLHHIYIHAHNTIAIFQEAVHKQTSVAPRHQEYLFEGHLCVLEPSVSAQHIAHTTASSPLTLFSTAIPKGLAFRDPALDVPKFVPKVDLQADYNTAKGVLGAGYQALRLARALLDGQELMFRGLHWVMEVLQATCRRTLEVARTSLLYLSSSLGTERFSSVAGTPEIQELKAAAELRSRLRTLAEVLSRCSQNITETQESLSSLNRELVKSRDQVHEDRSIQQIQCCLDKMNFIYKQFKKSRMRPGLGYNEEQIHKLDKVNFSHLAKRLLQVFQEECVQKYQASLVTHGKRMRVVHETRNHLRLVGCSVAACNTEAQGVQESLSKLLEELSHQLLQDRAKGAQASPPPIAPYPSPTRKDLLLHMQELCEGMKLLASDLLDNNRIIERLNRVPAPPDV
# [3] = target: INSR (Homo sapiens, UniProt P06213)
# [4] = target: T3, ABL1(H396P)-phosphorylated (Homo sapiens, UniProt P00519, H396P)
# T3 construct: phosphorylated
# [5] = target: T4, PFTAIRE2 (Homo sapiens, UniProt Q96Q40)
# T4 construct: gene CDK15
# [6] = target: MELK (Homo sapiens, UniProt Q14680)
# [7] = target: T5, HIPK4 (Homo sapiens, UniProt Q8NE63)
# T5 sequence (Q8NE63 1-616): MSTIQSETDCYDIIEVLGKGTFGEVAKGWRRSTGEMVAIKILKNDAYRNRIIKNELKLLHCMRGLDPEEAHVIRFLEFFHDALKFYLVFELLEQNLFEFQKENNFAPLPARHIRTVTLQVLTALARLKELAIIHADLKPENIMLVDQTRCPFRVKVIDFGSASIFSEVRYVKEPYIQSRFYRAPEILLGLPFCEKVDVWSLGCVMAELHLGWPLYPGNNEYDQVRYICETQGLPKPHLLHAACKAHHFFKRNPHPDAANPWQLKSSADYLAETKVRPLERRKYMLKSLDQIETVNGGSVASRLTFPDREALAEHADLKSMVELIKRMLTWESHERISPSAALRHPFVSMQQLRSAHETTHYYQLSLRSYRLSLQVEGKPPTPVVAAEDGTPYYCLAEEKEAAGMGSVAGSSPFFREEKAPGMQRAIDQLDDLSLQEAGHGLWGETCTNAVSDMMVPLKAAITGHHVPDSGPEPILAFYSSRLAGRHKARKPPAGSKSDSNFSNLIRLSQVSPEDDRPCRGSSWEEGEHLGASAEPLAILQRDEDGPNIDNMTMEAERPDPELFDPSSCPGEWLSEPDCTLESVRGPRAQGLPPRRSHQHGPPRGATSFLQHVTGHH
# [8] = read-out: Percent control / Tirabrutinib
# [9] = read-out: Percent control / Zanubrutinib
# [10] = read-out: Percent control / Acalabrutinib
# [11] = read-out: Percent control / Ibrutinib
# MELK, sequence (Q14680 whole entry): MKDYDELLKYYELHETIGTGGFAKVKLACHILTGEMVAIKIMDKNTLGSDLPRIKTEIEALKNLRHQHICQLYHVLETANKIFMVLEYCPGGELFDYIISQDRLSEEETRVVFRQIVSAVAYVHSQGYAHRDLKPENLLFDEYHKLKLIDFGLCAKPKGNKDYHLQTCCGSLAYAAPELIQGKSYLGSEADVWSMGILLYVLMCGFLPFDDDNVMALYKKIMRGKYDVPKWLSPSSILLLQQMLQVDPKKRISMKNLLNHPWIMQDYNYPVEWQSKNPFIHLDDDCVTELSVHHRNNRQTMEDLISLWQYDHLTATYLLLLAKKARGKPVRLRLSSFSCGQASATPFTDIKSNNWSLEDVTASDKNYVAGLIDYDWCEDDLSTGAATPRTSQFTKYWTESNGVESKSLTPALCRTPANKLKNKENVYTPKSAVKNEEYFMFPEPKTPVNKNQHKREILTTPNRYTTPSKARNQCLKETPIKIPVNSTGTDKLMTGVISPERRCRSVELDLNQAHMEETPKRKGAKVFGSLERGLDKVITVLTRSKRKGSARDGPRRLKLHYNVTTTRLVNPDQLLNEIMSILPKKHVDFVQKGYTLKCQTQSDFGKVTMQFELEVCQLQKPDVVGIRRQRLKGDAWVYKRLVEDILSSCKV
# INSR, sequence (P06213 whole entry): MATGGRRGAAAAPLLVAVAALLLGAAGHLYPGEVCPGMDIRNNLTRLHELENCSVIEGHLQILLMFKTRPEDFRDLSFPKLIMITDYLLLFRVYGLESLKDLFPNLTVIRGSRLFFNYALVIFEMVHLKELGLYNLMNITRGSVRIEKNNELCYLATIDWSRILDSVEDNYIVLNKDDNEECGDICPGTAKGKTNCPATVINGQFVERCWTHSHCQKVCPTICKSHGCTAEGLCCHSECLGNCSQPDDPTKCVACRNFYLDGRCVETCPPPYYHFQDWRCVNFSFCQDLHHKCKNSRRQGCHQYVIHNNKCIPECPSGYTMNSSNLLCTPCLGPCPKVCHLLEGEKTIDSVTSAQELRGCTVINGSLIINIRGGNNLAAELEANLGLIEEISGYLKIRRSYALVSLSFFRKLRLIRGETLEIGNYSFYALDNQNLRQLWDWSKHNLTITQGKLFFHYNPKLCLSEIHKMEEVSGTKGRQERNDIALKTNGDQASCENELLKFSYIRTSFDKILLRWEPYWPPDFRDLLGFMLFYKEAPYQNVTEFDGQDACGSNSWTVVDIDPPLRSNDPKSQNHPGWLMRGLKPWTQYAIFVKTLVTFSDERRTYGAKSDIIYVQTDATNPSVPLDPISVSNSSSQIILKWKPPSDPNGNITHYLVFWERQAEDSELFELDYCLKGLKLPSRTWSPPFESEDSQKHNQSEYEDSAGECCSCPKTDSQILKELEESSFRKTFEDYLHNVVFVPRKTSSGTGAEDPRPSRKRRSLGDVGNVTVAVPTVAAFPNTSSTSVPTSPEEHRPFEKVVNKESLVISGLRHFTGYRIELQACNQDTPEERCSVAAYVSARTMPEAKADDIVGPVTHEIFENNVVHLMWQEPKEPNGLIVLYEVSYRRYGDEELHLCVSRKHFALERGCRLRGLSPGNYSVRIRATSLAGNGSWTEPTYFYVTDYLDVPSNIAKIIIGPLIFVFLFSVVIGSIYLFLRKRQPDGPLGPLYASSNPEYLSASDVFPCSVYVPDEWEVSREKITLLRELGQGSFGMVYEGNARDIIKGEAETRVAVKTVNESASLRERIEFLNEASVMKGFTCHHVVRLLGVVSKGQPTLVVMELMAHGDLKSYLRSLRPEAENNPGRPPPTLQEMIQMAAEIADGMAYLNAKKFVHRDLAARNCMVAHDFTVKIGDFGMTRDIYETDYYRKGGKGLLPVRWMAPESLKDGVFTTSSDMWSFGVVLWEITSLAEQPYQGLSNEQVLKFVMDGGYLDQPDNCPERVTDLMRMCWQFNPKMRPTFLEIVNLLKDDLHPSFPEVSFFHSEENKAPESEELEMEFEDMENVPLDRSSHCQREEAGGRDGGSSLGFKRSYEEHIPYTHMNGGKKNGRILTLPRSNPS
# T4 sequence (Q96Q40 whole entry): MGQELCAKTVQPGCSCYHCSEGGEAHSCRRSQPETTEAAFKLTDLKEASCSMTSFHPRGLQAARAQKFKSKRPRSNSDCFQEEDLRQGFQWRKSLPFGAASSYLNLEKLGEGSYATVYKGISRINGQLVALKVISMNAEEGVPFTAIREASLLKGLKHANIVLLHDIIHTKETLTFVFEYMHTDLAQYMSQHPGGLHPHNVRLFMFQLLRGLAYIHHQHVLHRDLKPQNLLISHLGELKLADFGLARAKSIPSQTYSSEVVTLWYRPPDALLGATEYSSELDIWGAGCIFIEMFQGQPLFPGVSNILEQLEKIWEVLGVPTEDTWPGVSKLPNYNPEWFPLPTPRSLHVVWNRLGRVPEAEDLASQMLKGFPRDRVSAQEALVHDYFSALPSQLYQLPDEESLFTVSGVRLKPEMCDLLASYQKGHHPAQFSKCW
smiles,measurement,setting,value
CC#CC(=O)N1CC[C@@H](n2c(=O)n(-c3ccc(Oc4ccccc4)cc3)c3c(N)ncnc32)C1 [Tirabrutinib],remaining binding at 0.3 µM,[1]; [8],84%
same,remaining binding at 0.3 µM,[2]; [8],92%
same,remaining binding at 0.3 µM,[3]; [8],72%
same,remaining binding at 0.3 µM,[4]; [8],92%
same,remaining binding at 0.3 µM,[5]; [8],99%
same,remaining binding at 0.3 µM,[6]; [8],82%
C=CC(=O)N1CCC([C@@H]2CCNc3c(C(N)=O)c(-c4ccc(Oc5ccccc5)cc4)nn32)CC1 [Zanubrutinib],remaining binding at 0.3 µM,[1]; [9],100%
same,remaining binding at 0.3 µM,[2]; [9],100%
same,remaining binding at 0.3 µM,[3]; [9],100%
same,remaining binding at 0.3 µM,[4]; [9],72%
same,remaining binding at 0.3 µM,[7]; [9],87%
same,remaining binding at 0.3 µM,[6]; [9],59%
CC#CC(=O)N1CCC[C@H]1c1nc(-c2ccc(C(=O)Nc3ccccn3)cc2)c2c(N)nccn12 [Acalabrutinib],remaining binding at 0.3 µM,[2]; [10],76%
same,remaining binding at 0.3 µM,[3]; [10],93%
same,remaining binding at 0.3 µM,[4]; [10],95%
same,remaining binding at 0.3 µM,[5]; [10],82%
same,remaining binding at 0.3 µM,[7]; [10],85%
same,remaining binding at 0.3 µM,[6]; [10],81%
C=CC(=O)N1CCC[C@@H](n2nc(-c3ccc(Oc4ccccc4)cc3)c3c(N)ncnc32)C1 [Ibrutinib],remaining binding at 0.3 µM,[1]; [11],99%
same,remaining binding at 0.3 µM,[2]; [11],83%
same,remaining binding at 0.3 µM,[3]; [11],92%
same,remaining binding at 0.3 µM,[5]; [11],89%
same,remaining binding at 0.3 µM,[7]; [11],98%
same,remaining binding at 0.3 µM,[6]; [11],74%
